From the supplement of paper PMC10307832 come the findings set out here.

What all share (assay): relative viability (nuclei count vs DMSO), 5 days (fraction); higher = more cells survive
Compound in experiment [1]: C1CNCCC1C2=CC(=NN2)C3=CC=NC=C3
Put shortly:
(§1)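 Viability was defined as treated-well nuclei divided by vehicle-well nuclei, with the median taken over replicate plates. Cells from lung cancer lines sat overnight at 37 °C in 1536-well plates, received five √10-spaced library-drug doses by pinning on vehicle-anchored plates, and grew 5 days without medium change before one-step fixation, permeabilisation and Hoechst staining, 4× imaging and MetaXpress nuclear counts. Only plates with control CV under 25% and at least one doubling were kept.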

Compound in experiment [2]: C[C@@H](N)c1ccc(C(=O)Nc2ccnc3[nH]ccc23)cc1
Put shortly: as §1

Compound in experiment [3]: O[C@H]1CC[C@H](Nc2ncc3nc(Nc4c(F)cc(F)cc4F)n([C@H]4CCOC4)c3n2)CC1 [Tanzisertib]
Put shortly: as §1

For LU99A, the relative viability came to 0.948 in experiment [1] (0.08 µM); 1.01 in experiment [1] (0.8 µM); 1.04 in experiment [1] (2.53 µM); 0.946 in experiment [1] (8 µM); 0.989 in experiment [2] (0.1265 µM); 0.96 in experiment [2] (0.4 µM). Besides, the relative viability stood at 0.924 in experiment [2] (1.265 µM); 0.692 in experiment [2] (4 µM); 1.1 in experiment [3] (0.08 µM); 1.03 in experiment [3] (0.253 µM); 1.03 in experiment [3] (0.8 µM); 1.11 in experiment [3] (2.53 µM). In addition, the relative viability in experiment [3] (8 µM) was 0.938.
For the cell line LXF-289, the relative viability in experiment [1] (0.08 µM) stood at 1.04; in experiment [1] (0.8 µM), 1.05; in experiment [1] (2.53 µM), 0.991; in experiment [1] (8 µM), 1; in experiment [2] (0.04 µM), 1.03; in experiment [2] (0.1265 µM), 1. For the same cell line, the relative viability amounted to 1.03 in experiment [2] (0.4 µM); 1.05 in experiment [2] (1.265 µM); 0.902 in experiment [2] (4 µM); 1.08 in experiment [3] (0.08 µM); 0.986 in experiment [3] (0.253 µM); 1.07 in experiment [3] (0.8 µM). Also, the relative viability in experiment [3] (2.53 µM) is 1.05; in experiment [3] (8 µM), 1.16.
As to NCI-H23, the relative viability was determined as 0.866 in experiment [1] (0.08 µM); 0.988 in experiment [1] (0.8 µM); 1.26 in experiment [1] (2.53 µM); 1.14 in experiment [1] (8 µM); 0.895 in experiment [2] (0.04 µM); 0.999 in experiment [2] (0.1265 µM). The relative viability in experiment [2] (0.4 µM) amounted to 1.12; in experiment [2] (4 µM) it was 0.826; in experiment [3] (0.08 µM), 1.18; in experiment [3] (0.253 µM), 1.01; in experiment [3] (0.8 µM), 1.06; in experiment [3] (2.53 µM), 0.998. Besides, the relative viability in experiment [3] (8 µM) was found to be 0.43.
For NCI-H322M, the relative viability in experiment [1] (0.08 µM) came out at 0.93; in experiment [1] (0.8 µM), 0.923; in experiment [1] (2.53 µM), 0.92; in experiment [1] (8 µM) it was 1.02; in experiment [2] (0.04 µM), 1.14; in experiment [2] (0.1265 µM), 1.12. Besides, the relative viability in experiment [2] (0.4 µM) is 1.14; in experiment [2] (4 µM) it was 1.25; in experiment [3] (0.08 µM), 1.06; in experiment [3] (0.253 µM) it was 0.969; in experiment [3] (0.8 µM) it was 1.02; in experiment [3] (2.53 µM), 0.919. For the same cell line, in experiment [3] (8 µM), the relative viability is 0.867.
Take NCI-H358: the relative viability was determined as 0.902 in experiment [1] (0.08 µM); 0.994 in experiment [1] (0.8 µM); 1.02 in experiment [1] (2.53 µM); 0.822 in experiment [1] (8 µM); 0.912 in experiment [2] (0.04 µM); 0.925 in experiment [2] (0.1265 µM). Besides, the relative viability in experiment [2] (0.4 µM) turned out to be 0.921; in experiment [2] (1.265 µM) it was 0.86; in experiment [2] (4 µM) it was 0.754; in experiment [3] (0.08 µM), 1.12; in experiment [3] (0.253 µM), 0.912; in experiment [3] (0.8 µM) it was 0.865. Further, the relative viability in experiment [3] (2.53 µM) came out at 0.938; in experiment [3] (8 µM), 0.581.
As for NCI-H441, the relative viability came to 0.908 in experiment [1] (0.08 µM); 1.12 in experiment [1] (0.8 µM); 1.06 in experiment [1] (2.53 µM); 0.912 in experiment [1] (8 µM); 1.05 in experiment [2] (0.04 µM); 1.15 in experiment [2] (0.1265 µM). Moreover, the relative viability was determined as 1.31 in experiment [2] (0.4 µM); 0.906 in experiment [2] (1.265 µM); 0.827 in experiment [2] (4 µM); 1.09 in experiment [3] (0.08 µM); 0.888 in experiment [3] (0.253 µM); 0.93 in experiment [3] (0.8 µM). For the same cell line, the relative viability in experiment [3] (2.53 µM) was found to be 0.887; in experiment [3] (8 µM), 0.891.
In the case of NCI-H460, the relative viability in experiment [1] (0.08 µM) amounted to 0.939; in experiment [1] (0.8 µM), 1.05; in experiment [1] (2.53 µM) it was 0.971; in experiment [1] (8 µM), 1.01; in experiment [2] (0.04 µM), 0.963; in experiment [2] (0.1265 µM), 0.997. The relative viability stood at 1.06 in experiment [2] (0.4 µM); 0.851 in experiment [2] (1.265 µM); 0.993 in experiment [2] (4 µM); 0.994 in experiment [3] (0.08 µM); 0.976 in experiment [3] (0.253 µM); 0.992 in experiment [3] (0.8 µM). In addition, the relative viability was 0.982 in experiment [3] (2.53 µM) and 0.98 in experiment [3] (8 µM).
Take NCI-H520: the relative viability in experiment [1] (0.08 µM) was 0.899; in experiment [1] (0.8 µM), 0.816; in experiment [1] (2.53 µM) it was 0.988; in experiment [1] (8 µM), 1.03; in experiment [2] (0.04 µM) it was 1.14; in experiment [2] (0.1265 µM), 1.12. Further, the relative viability turned out to be 0.999 in experiment [2] (0.4 µM); 1.03 in experiment [2] (1.265 µM); 1.15 in experiment [2] (4 µM); 1.09 in experiment [3] (0.08 µM); 0.981 in experiment [3] (0.253 µM); 1.03 in experiment [3] (0.8 µM). Also, the relative viability in experiment [3] (2.53 µM) was found to be 0.919; in experiment [3] (8 µM), 0.907.
In the case of NCI-H522, the relative viability in experiment [1] (0.08 µM) was 0.819; in experiment [1] (0.8 µM), 1.05; in experiment [1] (2.53 µM), 0.983; in experiment [1] (8 µM), 0.98; in experiment [2] (0.04 µM) it was 0.935; in experiment [2] (0.1265 µM), 0.865. For the same cell line, the relative viability in experiment [2] (0.4 µM) was 1.11; in experiment [2] (1.265 µM), 0.875; in experiment [2] (4 µM), 0.805; in experiment [3] (0.08 µM), 1.11; in experiment [3] (0.253 µM) it was 1.01; in experiment [3] (0.8 µM), 1.02. For the same cell line, the relative viability in experiment [3] (2.53 µM) was 0.956; in experiment [3] (8 µM), 0.702.
As for NCI-H596, the relative viability in experiment [1] (0.08 µM) was 1.02; in experiment [1] (0.8 µM) it was 0.995; in experiment [1] (2.53 µM), 0.983; in experiment [1] (8 µM), 0.959; in experiment [2] (0.04 µM), 1.06; in experiment [2] (0.1265 µM), 0.905. Besides, the relative viability was determined as 0.907 in experiment [2] (0.4 µM); 0.815 in experiment [2] (1.265 µM); 0.967 in experiment [2] (4 µM); 0.927 in experiment [3] (0.08 µM); 1.05 in experiment [3] (0.253 µM); 0.893 in experiment [3] (0.8 µM). Besides, the relative viability in experiment [3] (2.53 µM) came out at 0.914; in experiment [3] (8 µM) it was 0.818.
